Patent publication US20260240931A1 (priority 2022, published 2026)

Legend:
[1] = test system: human hair follicle dermal papilla cells (HDPs); details: 100 nM
Description: C57BL/6 mice (male, five weeks old) were purchased from Orient Bio. In addition, the mice were raised with sufficient water and food. The animal experiment of the present disclosure was performed in accordance with the guidelines ([…]-2021 Jul. 18-1) of the Institutional Animal Care and Use Committee (IACUC) at Sungkyunkwan University. The HDP cells were cultured in a HDP growth medium under conditions of 37° C. and 5% CO2.
Cell proliferation analysis was performed in the presence or absence of dihydrotestosterone ([…]). […] The optical density was detected at 540 nm.

[2] = test system: testosterone-induced androgenetic alopecia model; assay: testosterone-induced androgenetic alopecia model: hair growth, skin color score, hair type frequency, hair thickness; format: in vivo, C57BL/6 mice; details: on 1 week
Description: A testosterone-induced androgenetic alopecia model was fabricated using C57BL/6 mice. C57BL/6 mice (n=6) were divided into the following five groups: Normal group, Vehicle control group: Experimental group treated with 40 μg/kg/week testosterone, Experimental group treated with 5 mg/day Cs-EE (Connarus semidecandrus Jack. extract according to the present disclosure), Experimental group treated with 10 mg/day Cs-EE, and Positive control group: Experimental group treated with 5 mg/kg/day finasteride. To confirm a hair growth promoting effect of Cs-EE, the dorsal part of each mouse was treated with hair removal cream and shaved using an electric clipper twice; seven and three days before the first testosterone treatment.
40 μg/kg of testosterone was dissolved in sesame oil and then subcutaneously injected once a week four times. Thereafter, in the case of the Cs-EE-treated experimental group, Cs-EE diluted with PBS and DMSO (ratio of 1:1) was applied to the back part of the mouse once every day for three weeks. As the positive control group, 5 mg of finasteride was treated instead of Cs-EE of the present disclosure. Two days after the testosterone injection, mice in all experimental groups were euthanized. Thereafter, the dorsal hairs were isolated from each experimental group to confirm hair type frequency and hair thickness. […]

Row | SMILES | cytotoxicity to HDP cells (FIG. 9B) [1] | hair growth on shaved skin (FIG. 2) [2]
1 | C[C@]12CCC(=O)C[C@@H]1CC[C@@H]1[C@@H]2CC[C@]2(C)[C@@H](O)CC[C@@H]12 [DHT, dihydrotestosterone] | cytotoxic | –
2 | CC(C)(C)NC(=O)[C@H]1CC[C@H]2[C@@H]3CC[C@H]4NC(=O)C=C[C@]4(C)[C@H]3CC[C@]12C [finasteride] | – | remained hairless
